The record followed here is PubChem BioAssay (NCI).

“And” between values parts separate entries of the source, which are not always exact repeats. Equal values may be shown once.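 How tested: cells in 96-well plates exposed to compound for 48 hours at five concentrations. Abbreviation: GI50, concentration required for 50% inhibition of growth. At the TGI there is no net growth.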

Common to all, as to assay: NCI-60 cell line screen, 48 h
The subject of test [1] is RPMI-8226 leukemia.
Test [2] deals with LOX IMVI melanoma.
For test [3], the system named is HT29 colon.
Test [4] concerns NCI/ADR-RES ovarian.
Test [5] concerns CAKI-1 renal.
Test [6] concerns MALME-3M melanoma.
Test [7] relates to OVCAR-8 ovarian.
In test [8] the test system is IGROV1 ovarian.
The subject of test [9] is ACHN renal.
In test [10] the test system is CCRF-CEM leukemia.

In the case of `CC(=O)OCC1OC(n2c(-c3ccc(C)cc3)cc(-c3ccccc3)c(C#N)c2=S)C(OC(C)=O)C(OC(C)=O)C1OC(C)=O` (stereo not given), the TGI in [1], in [2], in test [3], in [4], in test [5] and in test [6] was > 100 µM in each case. For the same molecule, the TGI in [7], in test [8] and in [9] was > 100 µM in each case.

Regarding `CC(C)(C)OC(=O)N1C(c2cccnc2)=CC[C@H]2C3CC=C(c4cccnc4)[C@@]3(C)CC[C@@H]21` (stereo not given in full), the TGI in [1] amounted to 5.05 µM; in test [2], 8.41 µM; in test [3], 11.8 µM; in [4], 34.9 µM; in test [10], 25.8 µM; in [5], 30.2 µM. Moreover, the TGI is 13.3 µM in test [6], 25 µM in test [7], 16.4 µM in test [8] and 11.3 µM in test [9].

With `COc1cc(CNNC(N)=S)cc(OC)c1OC`, the TGI in test [1], in [2], in test [3], in [4], in test [10] and in test [5] was > 100 µM in each case. Also, the TGI in test [6], in test [7], in test [8] and in test [9] was > 100 µM in each case.

Turning to `Cc1cc(S(=O)(=O)Nc2nc3ccccc3c(=O)n2N)c(S)cc1Cl`, the TGI in test [1] was > 100 µM; in test [2], > 100 µM; in test [3], > 100 µM; in test [4] it was 83.4 µM; in [10] it was > 100 µM; in test [5] it was > 100 µM. Besides, the TGI was 56.9 µM in test [6], > 100 µM in [7], > 100 µM in [8] and > 100 µM in test [9].

In the case of `O=C1c2ccccc2C(=O)N1CC(O)COc1cccc2ccccc12` (stereo not given), the TGI in test [1], in test [2], in [3], in test [4], in [10] and in test [5] was > 100 µM in each case. In addition, the TGI in test [6], in [7], in test [8] and in [9] was > 100 µM each time.

Regarding `Cn1c2ccccc2c(=O)c2cccc(C(=O)NC(CCC(N)=O)C(=O)O)c21` (stereo not given), the TGI in test [1], in [2], in test [3], in [4], in [5] and in test [6] was > 100 µM each time. In addition, the TGI in test [7], in [8] and in [9] was > 100 µM in each case.

Regarding `O=C(NCCCCCCNC(=O)c1cc(-c2ccccc2)nc2ccccc12)c1cc(-c2ccccc2)nc2ccccc12`, the TGI in test [1], in test [2], in test [3], in [4], in test [10] and in test [5] was > 100 µM throughout. In addition, the TGI in test [6], in test [7], in test [8] and in test [9] was > 100 µM throughout.

Turning to `CC1=C(C(=O)Nc2ccccc2)C2(CCCCC2)C(C#N)=C(SCC(=O)Nc2ccc(Br)cc2)N1`, the TGI was 7.11 µM in test [1]; 9.96 µM in test [2]; 8.53 µM in [3]; 27.3 µM in [4]; 7.02 µM in test [10]; 17.6 µM in test [5]. For the same molecule, the TGI in [6] was found to be 7.48 µM; in [7] it was 34.9 µM; in test [8], 14.6 µM; in test [9], 19.8 µM.

On to `Cc1ccc(NC(=O)c2cc(S(=O)(=O)Nc3nc4ncccc4[nH]3)c(SSc3cc(Cl)c(C(=O)Nc4ccc(C)cc4)cc3S(=O)(=O)Nc3nc4ncccc4[nH]3)cc2Cl)cc1`, for which the TGI in [1], in [2], in [3], in test [4], in test [10] and in [5] was > 100 µM in each case. Further, the TGI in [6], in test [7], in [8] and in test [9] was > 100 µM each time.

Take `CC(=O)OCc1ccc2oc(=O)c(C(=O)Oc3ccccc3)cc2c1`: the TGI in test [1] was > 100 µM; in test [2] it was > 100 µM; in test [3], > 100 µM; in test [4], > 100 µM; in test [10], > 100 µM; in [5], 38.5 µM. The TGI in [6], in test [7], in test [8] and in [9] was > 100 µM each time.

On to `COC(=O)c1ccccc1C1CN=NC12Cc1cc(C)ccc1C2=O` (stereo not given), for which the TGI in test [1], in test [2], in test [3], in test [4], in test [10] and in [5] was > 100 µM throughout. Moreover, the TGI in [6], in test [7], in test [8] and in test [9] was > 100 µM each time.

For `O=C1C(c2c(O)[nH]c3ccc(Br)cc23)=Nc2ccccc21`, the TGI was > 100 µM in test [1]; 25.8 µM in test [2]; 15 µM in [3]; > 100 µM in [4]; > 100 µM in test [10]; 38.8 µM in test [5]. Moreover, the TGI in [6] was found to be 44.4 µM; in test [7], 21.7 µM; in test [8], 13 µM; in test [9], 12.2 µM.

With `COC(=O)C(CCSC)NC(=O)Cc1ccc(C(=O)c2ccccc2)cc1` (stereo not given), the TGI is > 100 µM in test [1]; > 100 µM in test [2]; 65.5 µM in test [3]; 91.5 µM in test [4]; > 100 µM in test [10]; > 100 µM in test [5]. The TGI in [6], in test [7], in [8] and in test [9] was > 100 µM each time.

Regarding `CC(=O)Nc1c(C)cc2c(nc3n2CCC3O)c1[N+](=O)[O-]` (stereo not given), the TGI in [1], in test [2], in [3], in test [4], in test [10] and in test [5] was > 100 µM in each case. The TGI in test [6], in test [7], in [8] and in test [9] was > 100 µM in each case.

As for `O=C1C(Cl)=C(Nc2ccc(S(=O)(=O)Nc3ccccn3)cc2)C(=O)c2ccccc21`, the TGI was 15.4 µM in test [1]; 4.59 µM in test [2]; 22.3 µM in [3]; > 40.9 µM in test [4]; > 25.5 µM in [10]; > 52.1 µM in test [5]. Further, the TGI was 7.6 µM in [6], 15.9 µM in test [7], 23.1 µM in test [8] and 31.2 µM in [9].

`O=[N+]([O-])c1cc(-c2nc(-c3ccccc3)c(-c3ccccc3)[nH]2)c(O)c([N+](=O)[O-])c1`: the TGI in [1] turned out to be 75.1 µM; in test [2], 49.1 µM; in test [3] it was 35.8 µM; in test [4], 56.7 µM; in test [10], 72.7 µM; in test [5] it was 77.6 µM. The TGI in test [6] is 52 µM; in [7] it was > 100 µM; in [8], > 100 µM; in test [9], 46.7 µM.

With `COC(=O)C1(C)C=CC(=O)C2(C)C1C(O)C1OC3CC(c4ccoc4)C(C)=C3C1(C)C2CC(=O)O` (stereo not given), the TGI in [1], in test [2], in test [4], in test [10], in [5] and in test [6] was > 100 µM throughout. In addition, the TGI in test [7], in test [8] and in [9] was > 100 µM throughout.

Turning to `COC(=O)C1OC(O[C@H]2CC[C@]3(C)[C@H]4CC=C5[C@@H]6CC(C)(C)CC[C@]6(C(=O)OC6OCC(O)C(O)C6OC6OC(C)C(OC7OCC(O)C(O)C7O)C(O)C6O)CC[C@@]5(C)[C@]4(C)CC[C@H]3C2(C)C)C(O)C(O)C1O` (stereo not given in full), the TGI in [1] was > 100 µM and 42 µM; in test [2] it was 30.5 µM and 29 µM; in test [3], 30.8 µM and 29.5 µM; in test [4] it was > 100 µM; in test [10] it was 53.5 µM and 47.2 µM; in test [5], 25.9 µM and 34.9 µM. For the same molecule, the TGI in test [6] was 29 µM and 32.8 µM; in [7] it was 40.7 µM and 42.8 µM; in test [8], 75 µM and > 100 µM. Moreover, in test [4], the GI50 is 24 µM and > 100 µM.

As for `CCOC(=O)c1c(N2CCOCC2)[nH]c(=O)c(C(c2ccco2)c2c(O)c(C(=O)OCC)c(N3CCOCC3)[nH]c2=O)c1O`, the TGI in test [1], in test [2], in [3], in [4], in test [10] and in test [5] was > 100 µM throughout. In addition, the TGI in test [6], in test [7] and in test [9] was > 100 µM throughout.

Take `COc1ccc2nc(-c3ccc(O)cc3)sc2c1`: the TGI worked out at 0.678 µM in test [1]; 44.9 µM in test [2]; 37.2 µM in [3]; 72.6 µM in test [4]; 57.5 µM in test [5]; 51.6 µM in test [6]. Further, the TGI was 45.1 µM in test [7], 36.2 µM in test [8] and 32.5 µM in test [9].

On to `CC1=C(C)Cc2c(O)ccc(O)c2C1`, for which the TGI in test [1] was 27.2 µM; in [2] it was 46.7 µM; in [3] it was 30.5 µM; in test [4], > 100 µM; in [10], 16.2 µM; in test [5] it was 34.1 µM. In addition, the results for the TGI in [6], in test [7] and in test [9] were 31.6 µM, 32.1 µM and 31.2 µM, respectively.

With `CO/N=C(\C)c1cccc(Nc2c3ccccc3nc3occc23)c1`, the TGI in test [1] was 27.7 µM; in [2], 27.4 µM; in [3] it was 16.7 µM; in test [4] it was 15.6 µM; in test [10] it was > 100 µM; in test [5], 19.2 µM. Further, the figures for the TGI in test [6], in test [7] and in [8] were 34.5 µM, 66.4 µM and 19.4 µM, respectively.

Consider `O=c1/c(=C/c2ccc(-c3ccc(Cl)cc3Cl)o2)sc2n1[C@@H](c1ccc(Cl)cc1)C=C(c1cc(F)c(Cl)cc1Cl)N=2`, for which the TGI in [1], in test [2], in test [3], in [4], in [5] and in test [6] was > 100 µM throughout. For the same molecule, the TGI in test [7], in test [8] and in [9] was > 100 µM in each case.

Take `COc1cc(Cc2nccc3cc(OC)c(OC)cc23)c(N=NN(C)C)cc1OC`: the TGI in test [1] came out at 39.7 µM; in test [3], 25 µM; in test [4], 96.7 µM; in test [10], 9.33 µM; in [5] it was 22.3 µM; in test [6] it was 38.4 µM. In addition, the TGI in [7] is 60 µM; in test [8], 39.2 µM; in test [9], > 100 µM.

For the molecule `C=C1C2C[C@@H]3O[C@H]4C[C@H]5O[C@@]6(C[C@@H]7O[C@]8(C[C@H](C)[C@@H]9O[C@@H]%10CC(CO)O[C@@H]%10C[C@@H]9O8)C[C@H](C)[C@@H]7O6)C[C@H]5O[C@H]4[C@H](C)[C@H]3OC(=O)C[C@H]3CC[C@@H]4OC5[C@H]6O[C@]7(CC[C@H]8CC(=C)[C@H](CC[C@@H](C[C@H]1C)O2)O8)CC6O[C@@H]5[C@@H](O7)[C@H]4O3` (stereo not given in full), the TGI in test [1] is > 1 µM; in [2] it was > 0.433 µM; in test [4] it was > 1 µM; in test [10], > 1 µM; in test [5], > 1 µM; in test [6] it was > 1 µM. The TGI in [7] was 0.00513 µM; in test [8], > 1 µM; in [9], > 1 µM.
